Measurements taken from ChEMBL document CHEMBL1201862, “PubChem BioAssay data set” (2004).
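All cell lines were grown in 96-well plates and treated with compound for 48 hours. GI50 marks 50% less growth.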 Activity calls are given as the source filed them. No stated cut-off is given here; in the data, active = GI50 up to about 1.1 µM and inactive = higher.

How the values were obtained:
Assay in all cases: NCI-60 cell line screen, 48 h
NCI-H460 = test system: NCI-H460
COLO 205 = test system: COLO 205
HCT-15 = test system: HCT-15
SK-MEL-28 = test system: SK-MEL-28
U-251 = test system: U-251
KM12 = test system: KM12
HCT-116 = test system: HCT-116
SN12C = test system: SN12C
LOX IMVI = test system: LOX IMVI
M14 = test system: M14
ACHN = test system: ACHN
SF-295 = test system: SF-295
OVCAR-5 = test system: OVCAR-5
SW-620 = test system: SW-620
SK-MEL-2 = test system: SK-MEL-2
SR = test system: SR
UO-31 = test system: UO-31
HCC 2998 = test system: HCC 2998
T47D = test system: T47D

Row | Structure (SMILES) | GI50 (NCI-H460) | GI50 (COLO 205) | GI50 (HCT-15) [µM] | GI50 (SK-MEL-28) | GI50 (U-251) | GI50 (KM12) | GI50 (HCT-116) | GI50 (SN12C) | GI50 (LOX IMVI) | GI50 (M14) | GI50 (ACHN) | GI50 (SF-295) | GI50 (OVCAR-5) | GI50 (SW-620) | GI50 (SK-MEL-2) | GI50 (SR) | GI50 (UO-31) | GI50 (HCC 2998) | GI50 (T47D)
1 | COC(=O)C1=C(OC)[C@H]2C#C/C=C\C#C[C@@H]3Nc4c(cc(O)c5c4C(=O)c4ccccc4C5=O)[C@]24O[C@@]34[C@H]1C | < 0.01 µM (active) | < 0.01 µM (active) | < 0.01 | < 0.0229 µM (active) | < 0.01 µM (active) | < 0.01 µM (active) | 0.0555 µM (active) | < 0.01 µM (active) | < 0.01 µM (active) | < 0.01 µM (active) | < 0.01 µM (active) | < 0.01 µM (active) | < 0.01 µM (active) | < 0.01 µM (active) | 0.0585 µM (active) | < 0.01 µM (active) | < 0.01 µM (active) | < 0.01 µM (active) | 
2 | C[n+]1cccc2ccc(OC(=O)c3ccccc3)cc21 |  | > 100 µM (inactive) | > 100 |  |  | > 100 µM (inactive) | > 100 µM (inactive) | > 100 µM (inactive) | > 100 µM (inactive) | > 100 µM (inactive) | > 100 µM (inactive) | > 100 µM (inactive) | > 100 µM (inactive) | > 100 µM (inactive) | > 100 µM (inactive) |  | > 100 µM (inactive) |  | > 100 µM (inactive)
3 | CC1=CC[C@@]2(CO)[C@@H]([C@@H]1C)[C@H]1CC[C@@H]3[C@@]4(C)CC[C@H](O)C(C)(C)[C@@H]4CC[C@@]3(C)[C@]1(C)C[C@@H]2O | 16.3 µM (inactive) | 17.3 µM (inactive) | 46.3 | 43.9 µM (inactive) | 14.4 µM (inactive) | 38.5 µM (inactive) | 21.5 µM (inactive) | 75.3 µM (inactive) | 15.8 µM (inactive) | 28.2 µM (inactive) | 20.7 µM (inactive) | 17 µM (inactive) | > 100 µM (inactive) | 35.6 µM (inactive) |  |  | 53.3 µM (inactive) |  | 11.9 µM (inactive)
4 | CC1(C)OC[C@@H]([C@H](C=O)OCc2ccccc2)O1 |  | > 100 µM (inactive) | > 100 | > 100 µM (inactive) | > 100 µM (inactive) | > 100 µM (inactive) | > 100 µM (inactive) | > 100 µM (inactive) | > 100 µM (inactive) | > 100 µM (inactive) | > 100 µM (inactive) | > 100 µM (inactive) | > 100 µM (inactive) | > 100 µM (inactive) | > 100 µM (inactive) | > 100 µM (inactive) | > 100 µM (inactive) |  | 
5 | CCOP(=O)(O)CC1OC(CO)C(O)C1O (configuration not stated) | > 100 µM (inactive) | > 100 µM (inactive) | > 100 | > 100 µM (inactive) | > 100 µM (inactive) |  | > 100 µM (inactive) | > 100 µM (inactive) | > 100 µM (inactive) | > 100 µM (inactive) | > 100 µM (inactive) | > 100 µM (inactive) | > 100 µM (inactive) | > 100 µM (inactive) | > 100 µM (inactive) |  | > 100 µM (inactive) |  | > 100 µM (inactive)
6 | Cc1ccc2c(=O)c(C(=O)N(CCO)CCO)c[nH]c2n1 | > 100 µM (inactive) | > 100 µM (inactive) | > 100 | > 100 µM (inactive) | > 100 µM (inactive) | > 100 µM (inactive) | > 100 µM (inactive) | > 100 µM (inactive) | > 100 µM (inactive) | > 100 µM (inactive) | > 100 µM (inactive) | > 100 µM (inactive) | > 100 µM (inactive) | > 100 µM (inactive) | > 100 µM (inactive) |  | > 100 µM (inactive) |  | > 100 µM (inactive)
7 | N#CCC(=O)N1CCCCCCC1 | 42.7 µM (inactive) | 14.1 µM (inactive) | 16.8 | > 100 µM (inactive) | > 100 µM (inactive) | 76.4 µM (inactive) | > 100 µM (inactive) | > 100 µM (inactive) | > 100 µM (inactive) | > 100 µM (inactive) | > 100 µM (inactive) | > 100 µM (inactive) | > 100 µM (inactive) | 5.87 µM (inactive) | > 100 µM (inactive) |  | > 100 µM (inactive) | 69.3 µM (inactive) | 
8 | CSc1ccc(/C=C2\N=C(c3ccccc3)N(c3nc4ccc(Sc5ccccc5)cc4[nH]3)C2=O)cc1 | 19.1 µM (inactive) | 13.9 µM (inactive) | 18.2 | 18.9 µM (inactive) | 16.7 µM (inactive) | 15.3 µM (inactive) | 14.7 µM (inactive) | 21.7 µM (inactive) | 17.6 µM (inactive) | 15.3 µM (inactive) | 30.8 µM (inactive) | 14.3 µM (inactive) | 26.2 µM (inactive) | 17.9 µM (inactive) | 13 µM (inactive) |  | 18.3 µM (inactive) | 16.7 µM (inactive) | 20.5 µM (inactive)
